Assay [1] concerns HeLa. Kind of assay: Growth inhibition of HeLa cells after 48 hrs by MTT assay. In kind it is functional. To be noted: Homo sapiens. Background: Tetrazolium dyes change colour on reduction, which living cells bring about.
Assay [2] is described as follows: Antiproliferative activity against human MCF7/AZ cells assessed as cell viability at 50 uM after 48 hrs by MTT assay. It counts as functional. To be noted: read-out: Activity.
Assay [3] deals with Jurkat. Put plainly: Induction of apoptosis in Jurkat cells after 24 hrs by flow cytometric Annexin-V/propidium iodide assay. Conditions: Homo sapiens. It counts as functional, cell-based.
In assay [4] the test system is Jurkat. Kind of assay: Induction of apoptosis in Jurkat cells assessed as cell viability at 50 uM after 48 hrs by flow cytometry Annexin-V/propidium iodide assay. In kind it is functional. Conditions: Homo sapiens, read-out: Activity. For orientation: In flow cytometry, cells or beads pass a laser one at a time.
The test system of assay [5] is Jurkat. Kind of assay: Antiproliferative activity against human Jurkat cells assessed as cell viability at 5 uM after 48 hrs by MTT assay. It counts as functional. To be noted: read-out: Activity.
The test system of assay [6] is Jurkat. Kind of assay: Antiproliferative activity against human Jurkat cells assessed as cell viability at 50 uM after 48 hrs by MTT assay. In kind it is functional. To be noted: read-out: Activity.
Assay [7] is described as follows: Antiproliferative activity against human MCF7/AZ cells assessed as cell viability at 5 uM after 48 hrs by MTT assay relative to control. It counts as functional. Conditions: read-out: Activity.
The test system of assay [8] is HeLa. Kind of assay: Antiproliferative activity against HeLa cells assessed as cell viability at 50 uM after 48 hrs by MTT assay. It counts as functional. To be noted: Homo sapiens, read-out: Activity.
The test system of assay [9] is Jurkat. Put plainly: Induction of apoptosis in Jurkat cells assessed as cell viability at 5 uM after 48 hrs by flow cytometry Annexin-V/propidium iodide assay. It counts as functional. To be noted: Homo sapiens, read-out: Activity.
Assay [10] relates to HeLa. Put plainly: Antiproliferative activity against HeLa cells assessed as cell viability at 5 uM after 48 hrs by MTT assay relative to control. To be noted: Homo sapiens, read-out: Activity. In kind it is functional.
The subject of a further assay is Lymphocyte. Put plainly: Induction of apoptosis in human whole blood lymphocytes after 24 hrs by flow cytometric Annexin-V/propidium iodide assay. It counts as functional, cell-based.
For assay [11], the system named is Jurkat. Put plainly: Effect on apoptosis in Jurkat cells assessed as DNA laddering after 24 hrs at 1 uM. It counts as functional, cell-based. To be noted: Homo sapiens.
Assay [12] has as its system Jurkat. Kind of assay: Effect on apoptosis in Jurkat cells assessed as cleavage of PARP at 1 uM. Conditions: Homo sapiens. In kind it is functional, cell-based.
In assay [13] the test system is Jurkat. Kind of assay: Increase in caspase 3 activation in Jurkat cells at 1 uM. It counts as functional, cell-based. To be noted: Homo sapiens.
Assay [14] concerns Jurkat. Kind of assay: Effect on apoptosis in Jurkat cells assessed as cleavage of procaspase 3 to active enzyme at 1 uM. To be noted: Homo sapiens. It counts as functional, cell-based.
In assay [15] the test system is Jurkat. Put plainly: Effect on apoptosis in Jurkat cells assessed as DNA laddering after 24 hrs. It counts as functional, cell-based. Conditions: Homo sapiens.
For assay [16], the system named is Jurkat. Kind of assay: Effect on apoptosis in Jurkat cells assessed as cleavage of procaspase 3 to active enzyme at 5 uM. To be noted: Homo sapiens. It counts as functional, cell-based.
Assay [17] deals with Jurkat. Put plainly: Effect on apoptosis in Jurkat cells assessed as cleavage of PARP at 5 uM. In kind it is functional, cell-based. Conditions: Homo sapiens.
In assay [18] the test system is Jurkat. Kind of assay: Increase in caspase 3 activation in Jurkat cells at 5 uM. In kind it is functional, Homo sapiens.

Active and inactive are the calls of the source. The rule behind the calls is not given here.

What is called GI50 is the concentration giving 50% growth inhibition. Higher therefore signals less potent growth inhibition. In turn, `COc1cc([C@@H]2c3cc4c(cc3[C@@H](O[C@@H]3O[C@@H]5CO[C@@H](C)O[C@H]5[C@H](O)[C@H]3O)[C@H]3COC(=O)[C@H]23)OCO4)cc(OC)c1O` [ETOPOSIDE] displayed a GI50 in the assay with HeLa [1] of 8 µM. Also, the viability at 50 µM in assay [2] came out at 57%; in the assay on Jurkat [4], 61%; in the assay with Jurkat [6], 50%; with HeLa [8], 15%. Moreover, the outcome in the assay on Jurkat [3] was Active. Moreover, the viability at 5 µM with Jurkat [5] came out at 75%; in assay [7], 76%; in the assay on Jurkat [9], 4%; with HeLa [10], 91%. Also, the result with Lymphocyte and with Jurkat [11] was inactive.
For `CC[C@]1(O)C[C@@H]2CN(CCc3c([nH]c4ccccc34)[C@@](C(=O)OC)(c3cc4c(cc3OC)N(C)[C@H]3[C@@](O)(C(=O)OC)[C@H](OC(C)=O)[C@]5(CC)C=CCN6CC[C@]43[C@@H]65)C2)C1`, the outcome with Jurkat [12], in the assay with Jurkat [13] and in the assay on Jurkat [14] was Active.
In the case of `COc1cc(C2C3=C(COC3=O)Nc3[nH]nc(C)c32)cc(OC)c1OC` (stereo unspecified), the result in the assay on Jurkat [15], in the assay with Jurkat [3], in the assay with Jurkat [16] and in the assay with Jurkat [17] was Active. For the same molecule, in the assay on HeLa [1], growth was halved (GI50) at 5 µM. Moreover, the viability at 5 µM was determined as 47% in the assay on Jurkat [5], 58% in [7], 55% in the assay with Jurkat [9] and 50% in the assay with HeLa [10]. The Fold change with Jurkat [18] was determined as 3. Moreover, in the assay with Lymphocyte, the outcome was inactive.
As for `COc1cc([C@@H]2c3cc4c(cc3[C@H](O)[C@H]3COC(=O)[C@H]23)OCO4)cc(OC)c1OC` [PODOFILOX], halving of growth with HeLa [1] (GI50) required 0.02 µM. Moreover, the outcome in the assay with Jurkat [3], with Jurkat [16], with Jurkat [17] and in the assay with Jurkat [18] (Homo sapiens) was Active. Further, the viability at 5 µM amounted to 18% with Jurkat [5], 55% in assay [7], 54% with Jurkat [9] and 19% in the assay on HeLa [10]. For the same molecule, the outcome in the assay with Lymphocyte was inactive.

For the origin of these results see ChEMBL document CHEMBL1148830, “Discovery and investigation of antiproliferative and apoptosis-inducing properties of new heterocyclic podophyllotoxin analogues accessible by a one-step multicomponent synthesis” (2007).
